Data published in patent US12570662B2, “Substituted pyrrolo[1,2-b]pyridazines as bifunctional degraders of interleukin-1 receptor-associated kinases” (Nurix Therapeutics, Inc., priority 2021, dated 2026).

Biological target: T1, IRAK4 (Homo sapiens, UniProt Q9NWZ3)
T1 construct: C-terminal HiBiT-tagged Jurkat cells (polyclonal cell line or clone 8D5); endogenous in cells; host or cells: Jurkat cells (polyclonal cell line or clone 8D5), HiBiT-tagged
T1 sequence (Q9NWZ3 1-460): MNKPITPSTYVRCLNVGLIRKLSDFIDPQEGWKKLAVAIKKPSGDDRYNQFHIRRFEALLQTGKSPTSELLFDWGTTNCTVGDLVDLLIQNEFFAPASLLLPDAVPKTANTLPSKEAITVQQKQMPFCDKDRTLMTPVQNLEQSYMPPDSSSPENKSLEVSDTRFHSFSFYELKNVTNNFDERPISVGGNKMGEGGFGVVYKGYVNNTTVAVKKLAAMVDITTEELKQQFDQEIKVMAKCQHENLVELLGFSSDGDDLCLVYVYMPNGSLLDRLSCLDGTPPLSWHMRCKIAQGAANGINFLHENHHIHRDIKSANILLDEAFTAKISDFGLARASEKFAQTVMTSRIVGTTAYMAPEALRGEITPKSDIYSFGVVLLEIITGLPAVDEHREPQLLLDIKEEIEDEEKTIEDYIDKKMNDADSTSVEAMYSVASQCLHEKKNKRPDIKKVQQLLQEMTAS
Test: IRAK4 Degradation HiBit Assay
Type: cell-based
Conditions: C-terminal HiBiT-tagged Jurkat cells, 4 hrs incubation; for DC50: % IRAK4 remaining, four-parameter fit (IC50 used as DC50); for Dmax: from fit of % IRAK4 remaining, read-out: Dmax
How it was run: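 Jurkat cells carrying C-terminal HiBiT-tagged IRAK4 (polyclonal or clone 8D5) exposed to compound, 10 μM–0.1 nM final over 11 points, for 4 h at 32 °C. Remaining IRAK4 measured by lytic HiBiT/LgBiT luminescence relative to DMSO. DC50 and Dmax taken from four-parameter variable-slope fits.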

SMILES	DC50	Dmax
N#Cc1cnn2c(-c3cc(NC4CCOCC4)c(-c4nnc(C56CCC(CN7CCC(Oc8ccc(C9CCC(=O)NC9=O)cn8)CC7)(CC5)CC6)s4)cn3)ccc2c1 (racemic) [Example 24, rac-7-{5-[5-(4-{[4-({5-[(3R)-2,6-dioxopiperidin-3-yl]pyridin-2-yl}oxy)piperidin-1-yl]methyl}bicyclo[2.2.2]octan-1-yl)-1,3,4-thiadiazol-2-yl]-4-[(oxan-4-yl)amino]pyridin-2-yl}pyrrolo[1,2-b]pyridazine-3-carbonitrile]	77 nM	83%
N#Cc1cnn2c(-c3cc(NC4CCOCC4)c(-c4nnc(N5CCN(CC6CCN(c7ccc([C@H]8CCC(=O)NC8=O)nc7)CC6)CC5)s4)cn3)ccc2c1 (single isomer, unassigned) [Example 116]	100 nM	111%
CC(C)Nc1cc(-c2ccc3cc(C#N)cnn23)ncc1-c1nnc(N2CC3CCC(C2)N3CC2CCN(c3ccc(N4CCC(=O)NC4=O)cn3)CC2)s1 [Example 73, 7-(5-{5-[8-({1-[5-(2,4-dioxo-1,3-diazinan-1-yl)pyridin-2-yl]piperidin-4-yl}methyl)-3,8-diazabicyclo[3.2.1]octan-3-yl]-1,3,4-thiadiazol-2-yl}-4-[(propan-2-yl)amino]pyridin-2-yl)pyrrolo[1,2-b]pyridazine-3-carbonitrile]	29 nM	105%
CC(C)Nc1cc(-c2ccc3cc(C#N)cnn23)ncc1-c1nnc(N2CC3CCC(C2)N3CC2CCN(c3ccc([C@@H]4CCC(=O)NC4=O)cc3)CC2)s1 (single isomer, unassigned) [Example 121]	73 nM	88%
CC1(Nc2cc(-c3ccc4cc(C#N)cnn34)ncc2-c2nnc(N3CCN(CC4CCN(c5ccc(N6CCC(=O)NC6=O)cn5)CC4)CC3)s2)COC1 [Example 80, 7-(5-{5-[4-({1-[5-(2,4-dioxo-1,3-diazinan-1-yl)pyridin-2-yl]piperidin-4-yl}methyl)piperazin-1-yl]-1,3,4-thiadiazol-2-yl}-4-[(3-methyloxetan-3-yl)amino]pyridin-2-yl)pyrrolo[1,2-b]pyridazine-3-carbonitrile]	84 nM	90%
N#Cc1cnn2c(-c3cc(NC4CCOCC4)c(-c4nnc(N5CCN(CC6CCN(c7ccc(N8CCC(=O)NC8=O)cc7)C6)CC5)s4)cn3)ccc2c1 (racemic) [Example 91, rac-7-{5-[5-(4-{[(3R)-1-[4-(2,4-dioxo-1,3-diazinan-1-yl)phenyl]pyrrolidin-3-yl]methyl}piperazin-1-yl)-1,3,4-thiadiazol-2-yl]-4-[(oxan-4-yl)amino]pyridin-2-yl}pyrrolo[1,2-b]pyridazine-3-carbonitrile]	97 nM	32%
N#Cc1cnn2c(-c3cc(NC4CCOCC4)c(-c4nnc(C56CCC(CN7CCN(c8ccc(C9CCC(=O)NC9=O)cn8)CC7)(CC5)CC6)s4)cn3)ccc2c1 (racemic) [Example 26, rac-7-[5-(5-{4-[(4-{5-[(3R)-2,6-dioxopiperidin-3-yl]pyridin-2-yl}piperazin-1-yl)methyl]bicyclo[2.2.2]octan-1-yl}-1,3,4-thiadiazol-2-yl)-4-[(oxan-4-yl)amino]pyridin-2-yl]pyrrolo[1,2-b]pyridazine-3-carbonitrile]	120 nM	80%
N#CCNc1cc(-c2ccc3cc(C#N)cnn23)ncc1-c1nnc(N2CC3CCC(C2)N3CC2CCN(c3ccc([C@H]4CCC(=O)NC4=O)cc3)CC2)s1 (racemic) [Example 105, rac-7-{4-[(cyanomethyl)amino]-5-(5-{8-[(1-{4-[(3R)-2,6-dioxopiperidin-3-yl]phenyl}piperidin-4-yl)methyl]-3,8-diazabicyclo[3.2.1]octan-3-yl}-1,3,4-thiadiazol-2-yl)pyridin-2-yl}pyrrolo[1,2-b]pyridazine-3-carbonitrile]	6 nM	112%

Continued by falling DC50, values first:

DC50	Dmax	SMILES
75 nM	106%	N#Cc1cnn2c(-c3cc(NC4CCOCC4)c(-c4nnc(N5CCN(CC6CCN(c7ccc([C@@H]8CCC(=O)NC8=O)nc7)CC6)CC5)s4)cn3)ccc2c1 (single isomer, unassigned) [Example 117]
71 nM	104%	N#Cc1cnn2c(-c3cc(NC4CCOCC4)c(-c4nnc(C56CCC(C(=O)N7CCc8cc(C9CCC(=O)NC9=O)ccc8C7)(CC5)CC6)s4)cn3)ccc2c1 (racemic) [Example 57, rac-7-{5-[5-(4-{6-[(3R)-2,6-dioxopiperidin-3-yl]-1,2,3,4-tetrahydroisoquinoline-2-carbonyl}bicyclo[2.2.2]octan-1-yl)-1,3,4-thiadiazol-2-yl]-4-[(oxan-4-yl)amino]pyridin-2-yl}pyrrolo[1,2-b]pyridazine-3-carbonitrile]
64 nM	25%	N#Cc1cnn2c(-c3cc(NC4CCOCC4)c(-c4nnc(C56CCC(CN7CCc8cc(C9CCC(=O)NC9=O)ccc8C7)(CC5)CC6)s4)cn3)ccc2c1 (racemic) [Example 90, rac-7-(5-{5-[4-({6-[(3R)-2,6-dioxopiperidin-3-yl]-1,2,3,4-tetrahydroisoquinolin-2-yl}methyl)bicyclo[2.2.2]octan-1-yl]-1,3,4-thiadiazol-2-yl}-4-[(oxan-4-yl)amino]pyridin-2-yl)pyrrolo[1,2-b]pyridazine-3-carbonitrile]
61 nM	109%	CNc1cc(-c2ccc3cc(C#N)cnn23)ncc1-c1nnc(N2CC3(CCN(CC4CCN(c5ccc(C6CCC(=O)NC6=O)cn5)CC4)CC3)C2)s1 (racemic) [Example 55, rac-7-[5-(5-{7-[(1-{5-[(3R)-2,6-dioxopiperidin-3-yl]pyridin-2-yl}piperidin-4-yl)methyl]-2,7-diazaspiro[3.5]nonan-2-yl}-1,3,4-thiadiazol-2-yl)-4-(methylamino)pyridin-2-yl]pyrrolo[1,2-b]pyridazine-3-carbonitrile]
41 nM	71%	CC(C)Nc1cc(-c2ccc3cc(C#N)cnn23)ncc1-c1nnc(N2CCN(C[C@@H]3CCN(c4ccc([C@H]5CCC(=O)NC5=O)cn4)C3)CC2)s1 (racemic) [Example 10, 7-{5-[5-(4-{[(3RS)-1-{5-[(3RS&)-2,6-dioxopiperidin-3-yl]pyridin-2-yl}pyrrolidin-3-yl]methyl}piperazin-1-yl)-1,3,4-thiadiazol-2-yl]-4-[(propan-2-yl)amino]pyridin-2-yl}pyrrolo[1,2-b]pyridazine-3-carbonitrile]
27 nM	105%	CCN(C(=O)C1CCN(c2ccc([C@@H]3CCC(=O)NC3=O)cn2)CC1)[C@H]1CC[C@H](c2nnc(-c3cnc(-c4ccc5cc(C#N)cnn45)cc3NC)s2)CC1 (racemic) [Example 35, 1-{5-[(3RS)-2,6-dioxopiperidin-3-yl]pyridin-2-yl}-N-ethyl-N-[(1r,4r)-4-[5-(6-{3-cyanopyrrolo[1,2-b]pyridazin-7-yl}-4-(methylamino)pyridin-3-yl)-1,3,4-thiadiazol-2-yl]cyclohexyl]piperidine-4-carboxamide]
18 nM	111%	C[C@H](C#N)Nc1cc(-c2ccc3cc(C#N)cnn23)ncc1-c1nnc(N2CCN(CC3CCN(c4ccc(C5CCC(=O)NC5=O)cc4)CC3)CC2)s1 (mixture of isomers) [Example 97, 7-(4-{[(1R)-1-cyanoethyl]amino}-5-(5-{4-[(1-{4-[(3RS)-2,6-dioxopiperidin-3-yl]phenyl}piperidin-4-yl)methyl]piperazin-1-yl}-1,3,4-thiadiazol-2-yl)pyridin-2-yl)pyrrolo[1,2-b]pyridazine-3-carbonitrile]
15 nM	111%	CNc1cc(-c2ccc3cc(C#N)cnn23)ncc1-c1nnc(C23CCC(NC(=O)C4CCN(c5ccc(C6CCC(=O)NC6=O)cn5)CC4)(CC2)CC3)s1 (racemic) [Example 47, rac-N-{4-[5-(6-{3-cyanopyrrolo[1,2-b]pyridazin-7-yl}-4-(methylamino)pyridin-3-yl)-1,3,4-thiadiazol-2-yl]bicyclo[2.2.2]octan-1-yl}-1-{5-[(3R)-2,6-dioxopiperidin-3-yl]pyridin-2-yl}piperidine-4-carboxamide]
12 nM	109%	CNc1cc(-c2ccc3cc(C#N)cnn23)ncc1-c1nnc([C@H]2CC[C@H](CN3CCC(c4ccc([C@@H]5CCC(=O)NC5=O)cn4)CC3)CC2)s1 (racemic) [Example 38, 7-[4-(methylamino)-5-{5-[(1r,4r)-4-[(4-{5-[(3RS)-2,6-dioxopiperidin-3-yl]pyridin-2-yl}piperidin-1-yl)methyl]cyclohexyl]-1,3,4-thiadiazol-2-yl}pyridin-2-yl]pyrrolo[1,2-b]pyridazine-3-carbonitrile]
11 nM	115%	N#Cc1cnn2c(-c3cc(NC4CCOCC4)c(-c4nnc(N5CC6(CCN(CC7CCN(c8ccc(C9CCC(=O)NC9=O)cn8)CC7)CC6)C5)s4)cn3)ccc2c1 (racemic) [Example 88, rac-7-[5-(5-{7-[(1-{5-[(3R)-2,6-dioxopiperidin-3-yl]pyridin-2-yl}piperidin-4-yl)methyl]-2,7-diazaspiro[3.5]nonan-2-yl}-1,3,4-thiadiazol-2-yl)-4-[(oxan-4-yl)amino]pyridin-2-yl]pyrrolo[1,2-b]pyridazine-3-carbonitrile]
